Laboratory results: EPA's ToxRefDB 2
Where a name gives a salt, the structure may show the parent alone.

Assays:
mouse [1] = conditions: Subchronic oral toxicity in rodents, b6c3f1, Water, dose end: 14 week, group: systemic
rat [2] = conditions: Subchronic oral toxicity in rodents, fischer, Water, dose end: 14 week, group: systemic
mouse [3] = conditions: Subchronic oral toxicity in rodents, b6c3f1, Gavage/Intubation, dose end: 13 week, group: systemic, systemic / hematology / methemoglobin / methemoglobin + systemic / pathology microscopic / bone marrow / hemosiderosis + systemic / …
rat [4] = conditions: Subchronic oral toxicity in rodents, fischer, Gavage/Intubation, dose end: 13 week, group: systemic, systemic / hematology / anemia / anemia - macrocytic + systemic / hematology / erythrocyte (rbc) count differential / erythrocyte (rbc) + …
rat [5] = conditions: Carcinogenicity, fischer, Oral, Feed, dose end: 104 week, group: systemic
mouse [6] = conditions: Subchronic oral toxicity in rodents, b6c3f1, Feed, dose end: 13 week, group: systemic, systemic / pathology microscopic / kidney / mineralization + systemic / in life observation / body weight / body weight gain
mouse [7] = conditions: Carcinogenicity; b6c3f1; Oral; Feed; dose end: 103 week; group: systemic; systemic / in life observation / body weight / body weight + systemic / pathology microscopic / kidney / mineralization + systemic / …
rat [8] = conditions: Subchronic oral toxicity in rodents, fischer, Feed, dose end: 13 week, group: systemic
rat [9] = conditions: Prenatal developmental toxicity study; other; Inhalation; Nose-Only; dose end: 16 GD; group: maternal; systemic / in life observation / body weight / body weight gain + systemic / in life observation / food consumption / food consumption
mouse [10] = conditions: Prenatal developmental toxicity study, cd1, Oral, Gavage/Intubation, dose end: 15 GD
rat [11] = conditions: Combined chronic toxicity/carcinogenicity, fischer, Oral, Feed, dose end: 103 week, group: systemic
mouse [12] = conditions: Subchronic oral toxicity in rodents, b6c3f1, Feed, dose end: 13 week, group: systemic, systemic / in life observation / body weight / body weight
mouse [13] = conditions: Carcinogenicity; b6c3f1; Oral; Feed; dose end: 103 week; group: systemic; systemic / in life observation / body weight / body weight
dog = conditions: Chronic toxicity; beagle; Oral; Feed; dose end: 12 month; group: systemic; systemic / in life observation / body weight / body weight + systemic / in life observation / clinical signs / inappetence + systemic / in …
mouse [14] = conditions: Combined chronic toxicity/carcinogenicity; b6c3f1; Oral; Feed; dose end: 103 week; group: systemic; systemic / in life observation / body weight / body weight
rat [15] = conditions: Subchronic oral toxicity in rodents, fischer, Feed, dose end: 13 week, group: systemic, systemic / pathology microscopic / liver / vacuolization
rat [16] = conditions: Carcinogenicity; fischer; Oral; Feed; dose end: 103 week; group: systemic; systemic / pathology microscopic / pituitary gland / adenoma + systemic / pathology microscopic / pituitary gland / adenoma/carcinoma …
rat [17] = conditions: Prenatal developmental toxicity study, other, Oral, Gavage/Intubation, dose end: 15 GD
[18] = systemic / organ weight / kidney / absolute + systemic / organ weight / kidney / relative to body weight + systemic / pathology microscopic…
[19] = systemic / organ weight / liver / absolute + systemic / organ weight / liver / relative to body weight + systemic / pathology microscopic / …
[20] = systemic / hematology / erythrocyte (rbc) count differential / erythrocyte (rbc) + systemic / hematology / hematocrit (hct) / hematocrit (…
[21] = systemic / hematology / hematocrit (hct) / hematocrit (hct) + systemic / hematology / hemoglobin (hgb) / hemoglobin (hgb) + systemic / organ…
[22] = systemic / in life observation / body weight / body weight + systemic / pathology microscopic / kidney / hyperplasia + systemic / pathology …
[23] = systemic / pathology microscopic / kidney / hyperplasia + systemic / pathology microscopic / urinary bladder / hyperplasia + systemic / …
[24] = systemic / pathology microscopic / kidney / mineralization
[25] = group: developmental, systemic / in life observation / body weight / fetal weight
[26] = group: maternal, systemic / in life observation / body weight / dam weight + systemic / in life observation / clinical signs / abnormal respiratory sounds + …
[27] = systemic / pathology microscopic / liver / fatty change
[28] = systemic / pathology microscopic / pituitary gland / adenoma + systemic / pathology microscopic / adrenal gland / pheochromocytoma nos + …
[29] = group: maternal, systemic / in life observation / body weight / body weight gain + systemic / in life observation / clinical signs / fur (altered appearance…

## CC(O)CCl (stereo not given) [1-Chloro-2-propanol]
Mouse [1]; [18]
  LOAEL: 340 mg/kg/day
  NOAEL: 170 mg/kg/day
Mouse [1]; [19]
  LEL: 7 mg/kg/day
  NEL: < 7 mg/kg/day
Rat [2]; [20]
  LOAEL: 100 mg/kg/day
  NOAEL: 35 mg/kg/day
Rat [2]; [21]
  LEL: 5 mg/kg/day
  NEL: < 5 mg/kg/day

## Nc1cccc(Cl)c1 [3-Chloroaniline]
Mouse [3]
  LEL: 10 mg/kg/day
  LOAEL: 40 mg/kg/day
  NEL: < 10 mg/kg/day
  NOAEL: 20 mg/kg/day
Rat [4]
  LEL: 10 mg/kg/day
  LOAEL: 20 mg/kg/day
  NEL: < 10 mg/kg/day
  NOAEL: 10 mg/kg/day

## NCCCCCCCCCCC(=O)O [11-Aminoundecanoic acid]
Rat [5]; [22]
  LOAEL: 750 mg/kg/day
  NOAEL: 375 mg/kg/day
Rat [5]; [23]
  LEL: 375 mg/kg/day
  NEL: < 375 mg/kg/day
Mouse [6]
  LEL: 2250 mg/kg/day
  LOAEL: 2250 mg/kg/day
  NEL: 1800 mg/kg/day
  NOAEL: 1800 mg/kg/day
Mouse [7]
  LEL: 1120 mg/kg/day
  LOAEL: 1120 mg/kg/day
  NEL: < 1120 mg/kg/day
  NOAEL: < 1120 mg/kg/day
Rat [8]; systemic / pathology microscopic / kidney / hyperplasia + systemic / in life observation / body weight / body weight gain
  LOAEL: 900 mg/kg/day
Rat [8]; systemic / pathology microscopic / kidney / hyperplasia + systemic / pathology microscopic / kidney / mineralization
  NOAEL: 750 mg/kg/day
Rat [8]; [24]
  LEL: 450 mg/kg/day
  NEL: < 450 mg/kg/day

## COS(=O)(=O)OC [Dimethyl sulfate]
Rat [9]
  LEL: 0.7 ppm
  LOAEL: > 1.5 ppm
  NEL: 0.1 ppm
  NOAEL: ≥ 1.5 ppm

## CN(C)[C@@H]1C(=O)C(C(N)=O)=C(O)[C@@]2(O)C(=O)C3=C(O)c4c(O)cccc4[C@@](C)(O)[C@H]3[C@H](O)[C@@H]12.Cl [Oxytetracycline hydrochloride]
Mouse [10]; [25]
  LEL: 1320 mg/kg/day
  LOAEL: > 2100 mg/kg/day
  NEL: < 1320 mg/kg/day
  NOAEL: ≥ 2100 mg/kg/day
Mouse [10]; group: maternal, systemic / in life observation / body weight / dam weight
  LEL: 1670 mg/kg/day
Mouse [10]; [26]
  LOAEL: > 2100 mg/kg/day
  NEL: 1320 mg/kg/day
  NOAEL: ≥ 2100 mg/kg/day
Rat [11]; [27]
  LEL: 1000 mg/kg/day
  NEL: < 1000 mg/kg/day
Rat [11]; [28]
  LOAEL: > 2000 mg/kg/day
  NOAEL: ≥ 2000 mg/kg/day
Mouse [12]
  LEL: 3750 mg/kg/day
  LOAEL: 7500 mg/kg/day
  NEL: 1880 mg/kg/day
  NOAEL: 3750 mg/kg/day
Mouse [13]
  LEL: 1370 mg/kg/day
  LOAEL: > 1370 mg/kg/day
  NEL: 663 mg/kg/day
  NOAEL: ≥ 1370 mg/kg/day
dog
  LEL: 125 mg/kg/day
  LOAEL: 125 mg/kg/day
  NEL: 50 mg/kg/day
  NOAEL: 50 mg/kg/day
Mouse [14]
  LEL: 1400 mg/kg/day
  LOAEL: > 1400 mg/kg/day
  NEL: 650 mg/kg/day
  NOAEL: ≥ 1400 mg/kg/day
Rat [15]
  LEL: 155 mg/kg/day
  LOAEL: > 2500 mg/kg/day
  NEL: < 155 mg/kg/day
  NOAEL: ≥ 2500 mg/kg/day
Rat [16]
  LEL: 1250 mg/kg/day
  LOAEL: > 2500 mg/kg/day
  NEL: < 1250 mg/kg/day
  NOAEL: ≥ 2500 mg/kg/day
Rat [17]; [25]
  LEL: 1200 mg/kg/day
  LOAEL: 1200 mg/kg/day
  NEL: < 1200 mg/kg/day
  NOAEL: < 1200 mg/kg/day
Rat [17]; [29]
  LEL: 1200 mg/kg/day
  LOAEL: > 1500 mg/kg/day
  NEL: < 1200 mg/kg/day
  NOAEL: ≥ 1500 mg/kg/day
